pIC50: −log10 of the molar value. Where two headings read alike, the source gives them in different places. Bounds are passed on as bounds.

We go through 20 compounds from PMC6930638, “The Masked Polar Group Incorporation (MPGI) Strategy in Drug Design: Effects of Nitrogen Substitutions on Combretastatin and Isocombretastatin Tubulin Inhibitors” (Molecules, 2019).

The subject of series [1] is HeLa, HT-29 and MCF-7 human tumor cell lines. As to the kind of experiment: Antiproliferative activity over the three human tumor cell lines (MTT). The format is cell-based. The settings on record: range over the cell lines, Table S1, read-out: Cytotoxicity range (range of antiproliferative IC50 values). As to the method: (§1) The in vitro antiproliferative activity of the synthesized compounds was evaluated by a colorimetric reaction, using the MTT reagent. They were tested against three different human tumor cell lines: HeLa cervix epithelioid carcinoma, HT-29 colon adenocarcinoma, and MCF-7 breast adenocarcinoma. […] Moving the alkylamino substituent from a para to a meta position with respect to the bridge results in potency reduction, except for the phenstatin analogue 1f. However, the introduction of a nitrogen atom to form 2-dimethylaminopyridine derivatives entails a loss of activity, both for phenstatin analogues (1b, 2b), while for isocombretastatins, it only involves a 2–3 times potency decrease (3b). For combretastatins, it implies an improvement in the cytotoxicity values down to tenths of nanomolar (8b). […] On the other hand, the best 2-dimethylaminopyridine was combretastatin 8b. All ammonium salts derivatives were not cytotoxic at micromolar concentrations.
The antiproliferative activity of the compounds against three human tumor cell lines of different origins (i.e., HeLa cervix epithelioid carcinoma, HT-29 colon adenocarcinoma and MCF-7 breast adenocarcinoma) was evaluated by the MTT method. […] This high success rate is the result of a combination of favorable scaffolds and substituents, and it is similar to those of previous reports on related series. […] We have previously observed the same trend for related compounds acting at the colchicine site of tubulin [10, 23]. For this pyridine series, we observed a different potency trend when we compare the 4-amino-3-pyridine and the 3-amino-4-pyridine derivatives. […] This different behavior is probably a reflection of their different shape, combined with the different geometries imposed by different bridges. We have previously shown that the potency ordering isocombretastatins similar to oximes higher than benzophenones could be explained by the higher conjugation of the ketones with the aromatic rings, which imposes a more planar disposition than those required for high affinity colchicine site binding. For the 3-amino-4-pyridine series, more planar structures are required in order to avoid the bumping of the amino substituents with tubulin out the plane of the aromatic ring, an effect which we have previously shown to impact the potency of 3-substituted indolecombretastatins and dimethylaminophenyl phenstatins. This different geometrical disposition of the amino substituents, and the different adaptability of their corresponding pockets in the two series, can also account for the preference of bulkier substituents at position 3, such as the pyrrolidine rather than the smaller dimethylamino. […] The opposite is observed for the 4-dimethylaminophenyl phenstatins 1a and 1b. […] The remarkable levels of solubility achieved for the quaternary ammonium salts came unfortunately at the expenses of biological activity.
The effect of the different compounds on the proliferation of human cell lines was determined by using the MTT (3-[4,5-dimethylthiazol-2-yl]-2,5-diphenyltetrazolium bromide) reagent (MTT Thiazolyl Blue Tetrazolium Bromide, Sigma-Aldrich, St. Louis, MO, USA) dissolved in PBS 5 mg/mL. Cell viability was evaluated seeding 100 µL of cells in exponential growth phase with appropriate cell line concentration (1.5 × 10^4 HeLa and MCF-7 cells/mL and 3 × 10^4 HT-29 cells/mL) in complete medium in 96-well plates at 37 °C and 5% CO2. After 24 h incubation to allow cells to attach to the plates the ligands were added at different concentrations from 10^−5 to 10^−9 M. The effect on the proliferation was evaluated 72 h post-treatment by adding the MTT reagent (10 µL/well) to a final concentration of 0.5 mg/mL and the plate was further incubated for another 3 h. […]

In series [2] the test system is HeLa cervix epithelioid carcinoma. The series is described as follows: MTT cell antiproliferative assay, HeLa. The format is cell-based. The settings on record: Homo sapiens, 72 h. The procedure: as §1
(§2) HeLa (human cervical carcinoma) and MCF-7 (human breast carcinoma) cell lines were cultured in Dulbecco’s Modified Eagles Medium (DMEM) supplemented with 2 mM L-glutamine (Lonza-Cambrex, Karlskoga, Sweden), 10% (v/v) heat inactivated fetal bovine serum (HIFBS) (Lonza-Cambrex) and 100 μg/mL streptomycin-100 IU/mL penicillin (Lonza-Cambrex) at 37 °C in humidified 95% air and 5% CO2. HT-29 (human colon carcinoma) cells were cultured at 37 °C in complete RPMI 1640 medium containing 2 mM L-glutamine, 10% (v/v) HIFBS and 100 μg/mL streptomycin-100 IU/mL penicillin in humidified 95% air and 5% CO2 atmosphere.
(§3) The effect of the different compounds on the proliferation of human cell lines was determined by using the MTT (3-[4,5-dimethylthiazol-2-yl]-2,5-diphenyltetrazolium bromide) reagent (MTT Thiazolyl Blue Tetrazolium Bromide, Sigma-Aldrich, St. Louis, MO, USA) dissolved in PBS 5 mg/mL. Cell viability was evaluated seeding 100 µL of cells in exponential growth phase with appropriate cell line concentration (1.5 × 10^4 HeLa and MCF-7 cells/mL and 3 × 10^4 HT-29 cells/mL) in complete medium in 96-well plates at 37 °C and 5% CO2. After 24 h incubation to allow cells to attach to the plates the ligands were added at different concentrations from 10^−5 to 10^−9 M. The effect on the proliferation was evaluated 72 h post-treatment by adding the MTT reagent (10 µL/well) to a final concentration of 0.5 mg/mL and the plate was further incubated for another 3 h. After this period, the supernatant was removed, the MTT violet crystals formed on the bottom of each well were dissolved in DMSO (100 µL/well) and subsequently, the absorbance of the color complex was read at 570 nm using a multi-well plate reader. Compounds were dissolved in dimethyl sulfoxide (DMSO) and the final solvent concentrations never exceeded 0.5% (v/v). The control wells included treated cells with 0.5% (v/v) DMSO and the positive control. Measurements were performed in triplicate, and each experiment was repeated three times. […] Nonlinear curves fitting the experimental data were carried out for each compound.
In general terms: Formazan colour is commonly taken as a measure of viable cells.

Series [3] deals with MCF-7 breast adenocarcinoma. As to the kind of experiment: MTT cell antiproliferative assay, MCF-7. Format: cell-based. The note with it: Homo sapiens, MCF7, 72 h. As to the method: as §1, §2, §3
In series [4] the test system is Bovine brain microtubule protein (MTP). As to the kind of experiment: Tubulin polymerization inhibition assay (turbidimetry). The settings on record: 1.5 mg/mL MTP; IC50 calculated only if more than 50% inhibition at 20 µM; read-out: TPI IC50. Format: biochemical. As to the method: Bovine brain microtubule protein (MTP) was isolated as previously described. Briefly, it was purified according to the modified Shelanski method by two cycles of temperature-dependent assembly/disassembly.
Tubulin polymerization was monitored using a Helios α spectrophotometer by measuring the increase in turbidity at 450 nm, caused by a shift from 4 °C to 37 °C, which allows the in vitro MTP self-disassembly and assembly respectively. […] Firstly, ligands at 20 µM concentration, were incubated with 1.5 mg/mL MTP at 20 °C for 30 min and subsequently cooled on ice for 10 min. Then, the experiment starts at 4 °C to establish the initial baseline. The assembly process was initiated by shifting of the temperature to 37 °C and the turbidity produced can be measured by an absorbance increase. After reaching a stable plateau, the temperature was switched back to 4 °C to return to the initial absorption values. The difference in amplitude between the stable plateau and the initial baseline of the curves was taken as the degree of tubulin polymerization for each experiment. […] All the measurements were carried out in at least two independent experiments using MTP from different isolation.

On to `COc1cc(C(=NO)c2ccnc(N(C)C)c2)cc(OC)c1OC` [Compound E-2g, (2-(Dimethylamino)pyridin-4-yl)(3,4,5-trimethoxyphenyl)methanone oxime], for which, in series [1] (Homo sapiens), the pIC50 is 5.48 to 6.39.
On to `COc1ccc(OC)c(C(C)c2ccc(N(C)C)cc2)c1` (stereo not shown) [Compound 4e, 4-(1-(2,5-Dimethoxyphenyl)ethyl)-N,N-dimethylaniline], for which the pIC50 in series [2] is below 6.00; in series [3], below 6.00; in series [4], below 4.70; in series [1] (Homo sapiens) it was below 6.00.
Regarding `COc1ccc(OC)c(C(=NO)c2ccc(N(C)C)cc2)c1` [Compound 2e, (2,5-Dimethoxyphenyl)(4-(dimethylamino)phenyl)methanone oxime], the negative logarithm of the IC50 (pIC50) in series [2] was below 6.00; in series [3] it was below 6.00; in series [4], below 4.70.
Turning to `COc1cc(C(=NO)c2cccc(N(C)C)c2)cc(OC)c1OC` [Compound Z-2f, (3-(Dimethylamino)phenyl)(3,4,5-trimethoxyphenyl)methanone oxime], the pIC50 in series [1] was below 6.00.
For the compound `COc1cc(C=Cc2ccc([N+]3(C)CCCC3)cc2)cc(OC)c1OC` [Compound 9i, 1-Methyl-1-(4-(3,4,5-trimethoxystyryl)phenyl)pyrrolidin-1-ium iodide], the pIC50 in series [2] and in series [3] was below 6.00 in each case.
`COc1cc(C(=NO)c2ccnc(N(C)C)c2)cc(OC)c1OC` [Compound Z-2g, (2-(Dimethylamino)pyridin-4-yl)(3,4,5-trimethoxyphenyl)methanone oxime]: in series [1], the pIC50 was 5.48 to 6.39.
On the same count and under the same terms, the result for `COc1cc(C(=NO)c2ccc([N+](C)(C)C)cc2)cc(OC)c1OC` [Compound Z-6a, 4-((Hydroxyimino)(3,4,5-trimethoxyphenyl)methyl)-N,N,N-trimethylbenzenaminium iodide] reads below 6.00.
Regarding `COc1ccc(C(=NO)c2ccc(N(C)C)cc2)c(OC)c1OC` [Compound E-2d, (4-(Dimethylamino)phenyl)(2,3,4-trimethoxyphenyl)methanone oxime], the pIC50 in series [1] (Homo sapiens) was 6.17 to 6.56.
For the compound `COc1ccc(OC)c(C(=NO)c2ccc(N(C)C)cc2)c1` [Compound E-2e, (2,5-Dimethoxyphenyl)(4-(dimethylamino)phenyl)methanone oxime], the pIC50 in series [1] (Homo sapiens) was below 6.00.
Still for that read-out and setting: the result for `COc1cc(C(=NO)c2ccc([N+](C)(C)C)cc2)cc(OC)c1OC` [Compound E-6a, 4-((Hydroxyimino)(3,4,5-trimethoxyphenyl)methyl)-N,N,N-trimethylbenzenaminium iodide] reads below 6.00.
With `COc1cc(C(=NO)c2ccc(N3CCCC3)nc2)cc(OC)c1OC` [Compound 2c, (6-(Pyrrolidin-1-yl)pyridin-3-yl)(3,4,5-trimethoxyphenyl)methanone oxime], the pIC50 in series [2] was below 6.00; in series [3], below 6.00; in series [4], below 4.70.
On to `COc1cc(C(=NO)c2cccc(N(C)C)c2)cc(OC)c1OC` [Compound E-2f, (3-(Dimethylamino)phenyl)(3,4,5-trimethoxyphenyl)methanone oxime], for which the pIC50 in series [1] (Homo sapiens) is below 6.00.
As to `COc1ccc(OC)c(C(=NO)c2ccc(N(C)C)cc2)c1` [Compound Z-2e, (2,5-Dimethoxyphenyl)(4-(dimethylamino)phenyl)methanone oxime], in series [1], the negative logarithm of the IC50 (pIC50) is below 6.00.
In the case of `COc1cc(C(=NO)c2ccc(N3CCCC3)nc2)cc(OC)c1OC` [Compound Z-2c, (6-(Pyrrolidin-1-yl)pyridin-3-yl)(3,4,5-trimethoxyphenyl)methanone oxime], the pIC50 in series [1] (heading: Cytotoxicity range) was below 6.00.
Consider `COc1cc(C(=O)c2ccc([N+](C)(C)C)cc2)cc(OC)c1OC` [Compound 5a, N,N,N-Trimethyl-4-(3,4,5-trimethoxybenzoyl)benzenaminiumiodide], for which the pIC50 in series [2] is below 6.00; in series [3], below 6.00; in series [4], below 4.70; in series [1] (Homo sapiens) it was below 6.00.
With `C=C(c1ccc(N(C)C)cc1)c1cc(OC)ccc1OC` [Compound 3e, 4-(1-(2,5-Dimethoxyphenyl)vinyl)-N,N-dimethylaniline], the pIC50 in series [2] was below 6.00; in series [3], below 6.00; in series [4] it was below 4.70; in series [1] (Homo sapiens), below 6.00.
As to `COc1cc(C(C)c2cccc(N(C)C)c2)cc(OC)c1OC` (stereo not shown) [Compound 4f, N,N-Dimethyl-3-(1-(3,4,5-trimethoxyphenyl)ethyl)aniline], the pIC50 in series [2] is below 6.00; in series [3] it was below 6.00; in series [4], below 4.70; in series [1] (Homo sapiens) it was below 6.00.
Consider `COc1ccc(OC)c(C(=O)c2ccc(N(C)C)cc2)c1` [Compound 1e, (2,5-dimethoxyphenyl)(4-(dimethylamino)phenyl)methanone], for which the pIC50 in series [2] was below 6.00; in series [3] it was below 6.00; in series [4] it was below 4.70; in series [1] (Homo sapiens), below 6.00.
Regarding `COc1ccc(C(C)c2ccc(N(C)C)cc2)c(OC)c1OC` (stereo not shown) [Compound 4d, N,N-Dimethyl-4-(1-(2,3,4-trimethoxyphenyl)ethyl)aniline], the pIC50 in series [2] was below 6.00; in series [3] it was below 6.00; in series [4], below 4.70; in series [1] (Homo sapiens) it was below 6.00.
`COc1cc(C(=NO)c2ccc(N3CCCC3)nc2)cc(OC)c1OC` [Compound E-2c, (6-(Pyrrolidin-1-yl)pyridin-3-yl)(3,4,5-trimethoxyphenyl)methanone oxime]: the pIC50 in series [1] is below 6.00.

Broadly, the pIC50 is −log10 of the IC50, conventionally taken in molar units.
